Source: ChEMBL document CHEMBL1201862, “PubChem BioAssay data set” (2004)
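Values below derive from 48-hour exposures of cells grown in 96-well plates, with endpoints linearly interpolated between the two concentrations bracketing the appropriate inhibition level. Here, GI50 denotes the concentration required for 50% inhibition of growth.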 The source made the active and inactive calls. Rule as the data show it: active = GI50 up to about 1.1 µM and inactive = higher.

Experiments:
Experiment in all cases: growth of human tumour cells (NCI), 48 h
OVCAR-3 = tested on: OVCAR-3
HCC 2998 = tested on: HCC 2998
Malme-3M = tested on: Malme-3M
SNB-19 = tested on: SNB-19
MDA-MB-435 = tested on: MDA-MB-435
T47D = tested on: T47D
OVCAR-8 = tested on: OVCAR-8
786-0 = tested on: 786-0
NCI/ADR-RES = tested on: NCI/ADR-RES
CAKI-1 = tested on: CAKI-1
NCI-H23 = tested on: NCI-H23
RPMI-8226 = tested on: RPMI-8226
EKVX = tested on: EKVX
SF-539 = tested on: SF-539
SNB-75 = tested on: SNB-75
HOP-92 = tested on: HOP-92
Hs-578T = tested on: Hs-578T
DU-145 = tested on: DU-145
HCT-15 = tested on: HCT-15
MDA-N = tested on: MDA-N
SR = tested on: SR
MOLT-4 = tested on: MOLT-4
NCI-H226 = tested on: NCI-H226
OVCAR-5 = tested on: OVCAR-5
IGROV-1 = tested on: IGROV-1
A549 = tested on: A549
M14 = tested on: M14
OVCAR-4 = tested on: OVCAR-4
KM12 = tested on: KM12
HT-29 = tested on: HT-29
UACC-62 = tested on: UACC-62
COLO 205 = tested on: COLO 205
LOX IMVI = tested on: LOX IMVI
ACHN = tested on: ACHN
SK-MEL-28 = tested on: SK-MEL-28
RXF 393 = tested on: RXF 393
MCF7 = tested on: MCF7
SK-OV-3 = tested on: SK-OV-3
MDA-MB-231 = tested on: MDA-MB-231
PC-3 = tested on: PC-3
UO-31 = tested on: UO-31
UACC-257 = tested on: UACC-257
NCI-H460 = tested on: NCI-H460
HCT-116 = tested on: HCT-116
HL-60 = tested on: HL-60
TK-10 = tested on: TK-10
SF-268 = tested on: SF-268
SF-295 = tested on: SF-295
A498 = tested on: A498
NCI-H522 = tested on: NCI-H522
HOP-62 = tested on: HOP-62
SK-MEL-5 = tested on: SK-MEL-5
SW-620 = tested on: SW-620
U-251 = tested on: U-251
SN12C = tested on: SN12C
BT-549 = tested on: BT-549
SK-MEL-2 = tested on: SK-MEL-2
CCRF-CEM = tested on: CCRF-CEM
K562 = tested on: K562

COc1ccc(/N=N/c2ccc3oc(=O)c(C(=O)Nc4ccccc4)cc3c2)cc1
GI50 (OVCAR-3): > 10 µM (inactive) | GI50 (HCC 2998): > 10 µM (inactive) | GI50 (Malme-3M): > 10 µM (inactive) | GI50 (SNB-19): > 10 µM (inactive) | GI50 (MDA-MB-435): > 10 µM (inactive) | GI50 (T47D): 4.5 µM (inactive) | GI50 (OVCAR-8): > 8.51 µM (inactive) | GI50 (786-0): > 10 µM (inactive) | GI50 (NCI/ADR-RES): > 10 µM (inactive) | GI50 (CAKI-1): > 10 µM (inactive) | GI50 (NCI-H23): > 10 µM (inactive) | GI50 (RPMI-8226): > 10 µM (inactive) | GI50 (EKVX): > 10 µM (inactive) | GI50 (SF-539): > 9.31 µM (inactive) | GI50 (SNB-75): > 9.31 µM (inactive) | GI50 (HOP-92): > 10 µM (inactive) | GI50 (Hs-578T): > 10 µM (inactive) | GI50 (DU-145): > 6.85 µM (inactive) | GI50 (HCT-15): > 9.23 µM | GI50 (MDA-N): > 10 µM (inactive) | GI50 (SR): > 10 µM (inactive) | GI50 (MOLT-4): 6.4 µM (inactive) | GI50 (NCI-H226): > 10 µM (inactive) | GI50 (OVCAR-5): > 10 µM (inactive) | GI50 (IGROV-1): > 10 µM (inactive) | GI50 (A549): > 10 µM (inactive) | GI50 (M14): > 10 µM (inactive) | GI50 (OVCAR-4): > 10 µM (inactive) | GI50 (KM12): > 10 µM (inactive) | GI50 (HT-29): > 10 µM (inactive) | GI50 (UACC-62): > 10 µM (inactive) | GI50 (COLO 205): > 10 µM (inactive) | GI50 (LOX IMVI): > 10 µM (inactive) | GI50 (ACHN): > 5.81 µM (inactive) | GI50 (SK-MEL-28): > 10 µM (inactive) | GI50 (RXF 393): > 10 µM (inactive) | GI50 (MCF7): > 9.29 µM (inactive) | GI50 (SK-OV-3): > 10 µM (inactive) | GI50 (MDA-MB-231): > 10 µM (inactive) | GI50 (PC-3): > 6.01 µM (inactive) | GI50 (UO-31): 5.52 µM (inactive) | GI50 (UACC-257): > 10 µM (inactive) | GI50 (NCI-H460): > 10 µM (inactive) | GI50 (HCT-116): > 10 µM (inactive) | GI50 (HL-60): 3.16 µM (inactive) | GI50 (TK-10): > 10 µM (inactive) | GI50 (SF-268): > 8.32 µM (inactive) | GI50 (SF-295): > 10 µM (inactive) | GI50 (A498): > 10 µM (inactive) | GI50 (NCI-H522): > 10 µM (inactive) | GI50 (HOP-62): > 10 µM (inactive) | GI50 (SK-MEL-5): > 10 µM (inactive) | GI50 (SW-620): > 10 µM (inactive) | GI50 (U-251): > 10 µM (inactive) | GI50 (SN12C): > 10 µM (inactive) | GI50 (BT-549): > 10 µM (inactive) | GI50 (SK-MEL-2): > 10 µM (inactive)

Cc1cc(Cc2cc(Cc3cc(C)cc(C(C)(C)C)c3O)c(C)cc2C)c(O)c(C(C)(C)C)c1
GI50 (OVCAR-3): 16.4 µM (inactive) | GI50 (HCC 2998): 13.5 µM (inactive) | GI50 (Malme-3M): 12.5 µM (inactive) | GI50 (SNB-19): 17.2 µM (inactive) | GI50 (MDA-MB-435): 13 µM (inactive) | GI50 (T47D): 14 µM (inactive) | GI50 (OVCAR-8): 24.9 µM (inactive) | GI50 (786-0): 17.1 µM (inactive) | GI50 (NCI/ADR-RES): 17.9 µM (inactive) | GI50 (CAKI-1): 19.9 µM (inactive) | GI50 (NCI-H23): 17.4 µM (inactive) | GI50 (RPMI-8226): 20 µM (inactive) | GI50 (EKVX): 16.6 µM (inactive) | GI50 (CCRF-CEM): 16 µM (inactive) | GI50 (SNB-75): 11.2 µM (inactive) | GI50 (HOP-92): 13.2 µM (inactive) | GI50 (Hs-578T): 17.5 µM (inactive) | GI50 (DU-145): 14.5 µM (inactive) | GI50 (HCT-15): 17.4 µM | GI50 (MDA-N): 18.6 µM (inactive) | GI50 (SR): 29.2 µM (inactive) | GI50 (MOLT-4): 16.9 µM (inactive) | GI50 (NCI-H226): 14.8 µM (inactive) | GI50 (OVCAR-5): 19.6 µM (inactive) | GI50 (IGROV-1): 17.3 µM (inactive) | GI50 (A549): 15.4 µM (inactive) | GI50 (M14): 17.4 µM (inactive) | GI50 (OVCAR-4): 11 µM (inactive) | GI50 (KM12): 16.6 µM (inactive) | GI50 (HT-29): 18.6 µM (inactive) | GI50 (UACC-62): 13.4 µM (inactive) | GI50 (K562): 15.7 µM (inactive) | GI50 (COLO 205): 19.5 µM (inactive) | GI50 (LOX IMVI): 20 µM (inactive) | GI50 (ACHN): 16.1 µM (inactive) | GI50 (SK-MEL-28): 18 µM (inactive) | GI50 (RXF 393): 12 µM (inactive) | GI50 (MCF7): 12.7 µM (inactive) | GI50 (SK-OV-3): 16.7 µM (inactive) | GI50 (MDA-MB-231): > 100 µM (inactive) | GI50 (PC-3): > 100 µM (inactive) | GI50 (UO-31): 18.1 µM (inactive) | GI50 (UACC-257): 16.2 µM (inactive) | GI50 (HCT-116): 16.4 µM (inactive) | GI50 (HL-60): 20.9 µM (inactive) | GI50 (TK-10): 24.1 µM (inactive) | GI50 (SF-268): 15.9 µM (inactive) | GI50 (SF-295): 18.9 µM (inactive) | GI50 (A498): 16.1 µM (inactive) | GI50 (NCI-H522): 14.3 µM (inactive) | GI50 (HOP-62): 17.5 µM (inactive) | GI50 (SK-MEL-5): 16.6 µM (inactive) | GI50 (SW-620): 17.9 µM (inactive) | GI50 (U-251): > 100 µM (inactive) | GI50 (SN12C): 16.6 µM (inactive) | GI50 (BT-549): 17.5 µM (inactive) | GI50 (SK-MEL-2): > 100 µM (inactive)

c1cc2nnc1SCCCSc1ccc(nn1)SCCCS2
GI50 (OVCAR-3): > 43.2 µM (inactive) | GI50 (HCC 2998): > 37.8 µM (inactive) | GI50 (Malme-3M): > 48.8 µM (inactive) | GI50 (SNB-19): 33.1 µM (inactive) | GI50 (MDA-MB-435): > 40.6 µM (inactive) | GI50 (T47D): 31.3 µM (inactive) | GI50 (OVCAR-8): > 39.6 µM (inactive) | GI50 (786-0): 24.2 µM (inactive) | GI50 (NCI/ADR-RES): > 20.5 µM (inactive) | GI50 (CAKI-1): > 45.4 µM (inactive) | GI50 (NCI-H23): 34.8 µM (inactive) | GI50 (RPMI-8226): > 25.3 µM (inactive) | GI50 (EKVX): > 100 µM (inactive) | GI50 (SF-539): 23.5 µM (inactive) | GI50 (CCRF-CEM): > 21.2 µM (inactive) | GI50 (SNB-75): 25.1 µM (inactive) | GI50 (HOP-92): 38.4 µM (inactive) | GI50 (Hs-578T): 26.5 µM (inactive) | GI50 (DU-145): > 48 µM (inactive) | GI50 (MDA-N): > 29.9 µM (inactive) | GI50 (SR): > 26 µM (inactive) | GI50 (MOLT-4): > 20.8 µM (inactive) | GI50 (NCI-H226): 24.7 µM (inactive) | GI50 (OVCAR-5): 31.3 µM (inactive) | GI50 (IGROV-1): > 36.7 µM (inactive) | GI50 (A549): 41.6 µM (inactive) | GI50 (M14): > 25.9 µM (inactive) | GI50 (OVCAR-4): 16.1 µM (inactive) | GI50 (KM12): > 35.6 µM (inactive) | GI50 (HT-29): > 30.2 µM (inactive) | GI50 (UACC-62): > 25.8 µM (inactive) | GI50 (K562): > 27.9 µM (inactive) | GI50 (COLO 205): > 47 µM (inactive) | GI50 (LOX IMVI): > 21.9 µM (inactive) | GI50 (ACHN): > 43.7 µM (inactive) | GI50 (SK-MEL-28): > 46.5 µM (inactive) | GI50 (RXF 393): 12.9 µM (inactive) | GI50 (MCF7): 32.4 µM (inactive) | GI50 (SK-OV-3): 24.7 µM (inactive) | GI50 (MDA-MB-231): 30 µM (inactive) | GI50 (PC-3): 38.7 µM (inactive) | GI50 (UO-31): > 100 µM (inactive) | GI50 (UACC-257): > 39.9 µM (inactive) | GI50 (HCT-116): 17.6 µM (inactive) | GI50 (HL-60): > 19.9 µM (inactive) | GI50 (TK-10): 35.5 µM (inactive) | GI50 (SF-268): 22.2 µM (inactive) | GI50 (SF-295): 20.5 µM (inactive) | GI50 (A498): 97.7 µM (inactive) | GI50 (NCI-H522): > 100 µM (inactive) | GI50 (HOP-62): 16 µM (inactive) | GI50 (SK-MEL-5): 29.1 µM (inactive) | GI50 (SW-620): > 53.3 µM (inactive) | GI50 (U-251): 17.3 µM (inactive) | GI50 (SN12C): > 35.8 µM (inactive) | GI50 (BT-549): 19.9 µM (inactive) | GI50 (SK-MEL-2): 24.7 µM (inactive)
